# Results: article PMC10899196, “Protective effect of microbisporicin (NAI-107) against vancomycin resistant Enterococcus faecium infection in a Galleria mellonella model” (Scientific Reports, 2024)
# Like-named read-outs stand apart in the source and are kept apart here. Ends that are not written are not given here.
# Key:
# [1] = system: van-B type E. faecium (ID 553); test: microbe, parasite or virus in culture; assay type: cell-based, Enterococcus faecium
# Protocol: Sixty-six bacteriocins from Syngulon PARAGEN collection and NAI-107 from Naicons, SRL were screened using the resazurin microtiter assay (REMA)[30],[31]. The MIC for the antimicrobials listed in Table 1 were determined according to the clinical and laboratory standard institute (CLSI) guidelines and the European Committee on Antimicrobial Susceptibility Testing (EUCAST) broth microdilution reference method for MIC determination in E. faecium[32],[33].
# [2] = cited from earlier work
# Text: This characteristic implies that NAI-107 would require parenteral administration in multiple doses per day for therapeutic use.
# [3] = system: vanB-type E. faecium (ID 553); test: Galleria mellonella E. faecium infection model, in vivo efficacy
# Protocol: G. mellonella larvae were treated with a range of doses of vanB-type E. faecium (ID 553) (1 × 10^6–1 × 10^9 CFU/mL) and observed for death alongside phosphate buffer saline (PBS) controls.
# Injection of G. mellonella was carried out as described in Dijokaite et al.[21]. The last larval stage of G. mellonella (Terramania, Arnhem, NL) were used for the experiments. Only non-discoloured, healthy larvae were selected. The larvae were injected in the last left proleg using 0.3 mL U-100 insulin syringes (BD Micro-Fine).
# Each test group consisted of two groups of 10 larvae per concentration of each bacteriocin or linezolid (10 µg/mL). 30 µl of PBS containing 2.7 × 10^7 CFU E. faecium was used to infect the G. mellonella larva. The larvae were treated with various concentrations of bacteriocins. One positive and two negative control groups were used. The positive control group received only the E. faecium inoculum in PBS. Out of the two negative control groups, one group underwent no manipulation, while the other group was injected with PBS only. Each antimicrobial agent was tested in a single experiment using larvae from the same batch and tested at the same time under identical conditions. Each group were incubated in sterile Petri dishes at 37 °C with a 5% (v/v) CO2 atmosphere for the length of the experiments.
# Data were analyzed using GraphPad Prism v9. Survival plots were created using Kaplan–Meier survival curves. Statistical analysis was carried out using the Mantel-Cox test to compare survival curves between the PBS controls and each treatment arm. A P value of < 0.05 was considered statistically significant.
# [4] = system: methicillin-resistant Staphylococcus aureus; conditions: cited from earlier work
# Text: (§1) There are a number of study limitations. […] This hypothesis was motivated by the growing problem of VRE infections. We acknowledge the limitations of this hypothesis. […] This would be of clinica ...
# [5] = system: G. mellonella; conditions: G. mellonella model; cited from earlier work
# Text: as §1
# [6] = system: vanA E. faecalis A533; conditions: administered intravenously to neutropenic mice; cited from earlier work
# Text: (§2) Bacteriocins have gained considerable attention as potential alternatives to traditional antibiotics due to their narrow-spectrum activity and a lower likelihood of inducing resistance[11],[12]. Most leaderless bacteriocins such as Lacticin Q (53 aa), Lacticin Z (53 aa), and Garvicin KS have proven to have inhibitory effects against a range of genera such as Listeria, Staphylococcus and ...
# [7] = system: vanA E. faecium 569; conditions: administered intravenously to neutropenic mice; cited from earlier work
# Text: as §2
# [8] = Enterococcus faecium, micro broth dilution method, van-B type E. faecium (ID 553), read-out: MIC
# [9] = micro broth dilution method, van-B type E. faecium (ID 553)
# [10] = micro broth dilution method, van-B type E. faecium (ID 553), molar value from deduced molecular weight
# [11] = mouse, single subcutaneous dosing of 5, 20 and 80 mg/kg
molecule,measurement,setting,value
"CC1(C)S[C@@H]2[C@H](NC(=O)[C@H](N)c3ccccc3)C(=O)N2[C@H]1C(=O)O [Ampicillin, reference compound]",MIC,[1]; [8],≥ 32 µg/mL
"CC(=O)NC[C@H]1CN(c2ccc(N3CCOCC3)c(F)c2)C(=O)O1 [Linezolid, reference compound]",MIC,[1]; [8],2 µg/mL
Microbisporicin,MIC,[1]; [9],4 µg/mL
same,MIC,[1]; [10],0.00178 µM/L
same,bioavailability,"[2]; after intramuscular, intravenous and subcutaneous administration",good bioavailability
same,AUC,[2]; [11],27000 to 276000 ng·h/mL
same,Cmax,[2]; [11],4000 to 22000 ng/mL
same,elimination half-lives,[2]; [11],4.2 to 8.2 h
same,oral absorption,[2]; oral,not absorbed orally
same,mortality compared with the linezolid (10 µg/mL) treated group,"[3]; 16 µg/mL group, 120 h",significantly lower
same,dose groups with the lowest mortality,"[3]; doses tested 2, 4, 8 and 16 µg/mL, 120 h",8 µg/mL and 16 µg/mL
same,in vivo efficacy (survival of infected larvae),"[3]; larvae infected with 2.7 × 10^7 CFU E. faecium in 30 µl PBS, 20 larvae per group, 2-16 µg/mL, 120 h at 37 °C",effective in vivo at all doses tested
same,efficacy against methicillin-resistant Staphylococcus aureus in rat model,[4],efficacious
same,toxicity in rat model,[4],non-toxic
same,concentration up to which no toxicity was exhibited,[5],≥ 64000 ng/mL
same,in vivo efficacy,[6],effective
same,in vivo efficacy,[7],effective
Teicoplanin [reference compound],MIC,[1]; [9],0.5 µg/mL
MSWLNFLKYIAKYGKKAVSAAWKYKGKVLEWLNVGPTLEWVWQKLKKIAGL [Aureocin A53],MIC,[1]; [9],1.56 µg/mL
same,MIC,[1]; [10],0.2609 µM/L
CN[C@H](CC(C)C)C(=O)N[C@H]1C(=O)N[C@@H](CC(N)=O)C(=O)N[C@H]2C(=O)N[C@H]3C(=O)N[C@H](C(=O)N[C@H](C(=O)O)c4cc(O)cc(O)c4-c4cc3ccc4O)[C@H](O)c3ccc(c(Cl)c3)Oc3cc2cc(c3O[C@@H]2O[C@H](CO)[C@@H](O)[C@H](O)[C@H]2O[C@H]2C[C@](C)(N)[C@H](O)[C@H](C)O2)Oc2ccc(cc2Cl)[C@H]1O [Vancomycin],MIC,[1]; Enterococcus faecium,64 µg/mL
"CNC(C)C1CCC(N)C(OC2C(N)CC(N)C(OC3OCC(C)(O)C(NC)C3O)C2O)O1 (stereo not drawn) [Gentamicin, reference compound]",MIC,[1]; [8],≥ 32 µg/mL
"CN(C)[C@@H]1C(O)=C(C(N)=O)C(=O)[C@@]2(O)C(O)=C3C(=O)c4c(O)cccc4[C@@](C)(O)[C@H]3C[C@@H]12 [Tetracycline, reference compound]",MIC,[1]; [8],0.25 µg/mL
"CC[C@H]1OC(=O)[C@H](C)[C@@H](O[C@H]2C[C@@](C)(OC)[C@@H](O)[C@H](C)O2)[C@H](C)[C@@H](O[C@@H]2O[C@H](C)C[C@H](N(C)C)[C@H]2O)[C@](C)(O)C[C@@H](C)C(=O)[C@H](C)[C@@H](O)[C@]1(C)O [Erythromycin, reference compound]",MIC,[1]; [8],≥ 8 µg/mL
